Data on two molecules can be found in patent US6455593B1, “Method of dynamic retardation of cell cycle kinetics to potentiate cell damage” (priority 1995, dated 2002).

Usually inhibition stands for the relative decrease from the control value, in per cent.

One data set concerns Jurkat T cells. The data set can be described thus: Induction of apoptosis by DEET. Format: cell-based, human.
Data set [1] deals with U937 cells. The data set can be described thus: Induction of apoptosis by DEET. The class given is cell-based, human.
A further data set deals with Daudi B cells. The data set can be described thus: Induction of apoptosis by DEET. The class given is cell-based, human.
The subject of a further data set is p. falciparum D6. The data set can be described thus: Parasite growth by 3H-hypoxanthine uptake in infected erythrocytes. The class given is cell-based. The note with it: Plasmodium falciparum, D6, Erythrocyte; 24 hr after RBC infection, 3H-hypoxanthine uptake; read-out: inhibitory concentrations (IC50), strain D6.
In data set [2] the test system is human promonocytic lymphoma cells (U937). The data set can be described thus: Microculture indicator system (MIS), MTT growth inhibition assay with bivariate serial dilutions. Format: cell-based. The procedure, abridged:
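U937 human promonocytic lymphoma cells were tested in flat-bottom 96-well plates. Two agents were each diluted two-fold by serial mixing, then combined into bivariate dilution series before about 1×10^5 cells per well were added in RPMI 1640 with 10% Nurserum and antibiotics, 100 μl per well. Plates were incubated at 37° C. Thirty μl of 0.5% MTT was then added for 3 hr. Formazan was dissolved overnight with 120 μl of 10 % SDS/0.01 N HCl and absorbance was read at 570 nm against a cell-free blank.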
A general note: Tetrazolium dyes change colour on reduction, which living cells bring about.

The test system of data set [3] is Burkitt's lymphoma cell line Raji. The data set can be described thus: MIS MTT growth inhibition assay. Format: cell-based, human. Conditions: total 24 Hours.
The subject of a further data set is p. falciparum W2. The data set can be described thus: Parasite growth by 3H-hypoxanthine uptake in infected erythrocytes. The note with it: Plasmodium falciparum, W2, Erythrocyte; 24 hr after RBC infection, 3H-hypoxanthine uptake; read-out: inhibitory concentrations (IC50), strain W2. The class given is cell-based.
For data set [4] the following is noted: after oral ingestion; cited from earlier work.
The test system of data set [5] is U937 cells. The data set can be described thus: Flow cytometric cell cycle analysis (propidium iodide). The class given is cell-based, human. Conditions: U937. The protocol:
Flow cytometric analyses were performed with a Coulter Epics System (purchased from Coulter Corp, Hialeah, Fla.). Cells were disrupted in buffer with 0.1% Triton-X 100 (or 0.6 % NP-40), so that the nuclei could be stained with 0.05% propidium iodide (PI). See Shapiro N M, Practical Flow Cytometry, Man R Liss, NY (1988); Nicoletti I et al., J Immunol Methods 139:271-9 (1991). Analyses of 10,000 nuclei were performed with graduated concentrations of dThd at serial time points. Histograms of PI fluorescent emissions at 675±10 nm were used to discriminate cell cycle fractions of the target population. The proportion of cells in each phase of the cell cycle is represented by stack bars above the X-axis as a fraction of those cells with intact DNA structure. The fraction of cells with depleted DNA in each sample is represented below the X-axis as a percentage of the total cell number. Cells with depleted DNA are presumed apoptotic. Crompton S T et. al. Biophys. Biochem. Res. Comm. 183:532-537 (1992). Each stack bar in FIG. 5 represents the cell cycle distribution of a population sample of >10,000 cells, analyzed for each indicated dThd concentration at indicated treatment times.
Flow cytometric analyses were performed as in Example 2. The results are shown in plot A of FIG. 5 from Example 2.
The U937 cells were exposed to a range of concentrations below the IC40 and sampled for flow cytometry at intervals of 8, 16, and 24 hours. Flow cytometric analysis was performed as described in Example 2.
In general terms: A flow cytometer gives signals particle by particle.

[6] abbreviates: Homo sapiens, U-937, 4 h, U937, HU […] 4 H, K252a 0, read-out: MTT % inhibition, HU only.

Turning to `CCN(CC)C(=O)c1cccc(C)c1` [DEET, N,N-Diethyl-m-toluamide], the Concentration inducing apoptosis result with Jurkat T cells, in the data set with U937 cells [1] and with Daudi B cells was “above 0.5 mM” in each case.

Take `NC(=O)NO` [HU, hydroxyurea]: the values for the IC50 with p. falciparum D6 and with p. falciparum W2 were 175 µM and 219 µM, respectively. Also, the inhibition at 10 µM in [2] (Homo sapiens, U-937, 4 h, U937, HU 0.01 mM 4 H, K252a 0, read-out: MTT % inhibition, HU only) was -1%. In data set [2] (Homo sapiens, U-937, 4 h, U937, HU 0.02 mM 4 H, K252a 0, read-out: MTT % inhibition, HU only), the inhibition at 20 µM is -1%. Moreover, in data set [2] (Homo sapiens, U-937, 4 h, U937, HU 0.03 mM 4 H, K252a 0, read-out: MTT % inhibition, HU only), the inhibition at 30 µM worked out at 1%. For the same molecule, the inhibition at 60 µM in data set [2] (Homo sapiens, U-937, 4 h, U937, HU 0.06 mM 4 H, K252a 0, read-out: MTT % inhibition, HU only) came out at 9%. In data set [2] (Homo sapiens, U-937, 4 h, U937, HU 0.50 mM 4 H, K252a 0, read-out: MTT % inhibition, HU only), the inhibition at 500 µM was 48%. In data set [2] (Homo sapiens, U-937, 4 h, U937, HU 1.00 mM 4 H, K252a 0, read-out: MTT % inhibition, HU only), the inhibition at 1000 µM came to 52%. Moreover, the inhibition at 2000 µM in data set [2] (Homo sapiens, U-937, 4 h, U937, HU 2.00 mM 4 H, K252a 0, read-out: MTT % inhibition, HU only) came to 59%. Besides, in [2] (setting [6]), the inhibition at 130 µM came to 20%. Further, in data set [2] (setting [6]), the inhibition at 250 µM turned out to be 36%. Further, the “Enhancement of DEET-induced apoptosis as prospective RA” value in data set [2] (MTT tests, about 0.05 to 3 mM, preliminary results) is on record as “no significant enhancement of the DEET-induced apoptosis”. Besides, the “MTT % inhibition, HU only” value in data set [2] (U937, HU 0.00 mM (so in the source) 4 H, K252a 0) is given as −2%. Further, the “Growth Inhibition” value in data set [3] (HU only 0.00 mM) is listed as −3%; in data set [3] (HU only 0.01 mM), −0%; in [3] (HU only 0.02 mM), −7%; in data set [3] (HU only 0.03 mM), −7%; in data set [3] (HU only 0.05 mM) it was −7%; in data set [3] (HU only 0.50 mM), 0%. For the same molecule, the results for the “Growth Inhibition” value in data set [3] (HU only 1.00 mM) and in data set [3] (HU only 2.00 mM) were 0% and 17%, respectively. Moreover, in data set [4], the “Time of blood level peak” value was 2 to 4 h. Moreover, the “Cells that became DNA depleted” value in the data set with U937 cells [5] (0.125-1 mM HU, up to 16 hr) is on record as “no more than 20%”. Besides, in the data set with U937 cells [5] (HU>1 mM (2 mM at 24 hr)), the “Cells with depleted DNA” value is recorded as “a major increase in cells with depleted DNA became evident”.
